Measured values published in US6855669B2, “Use of α,β unsaturated aliphatic aldehydes and ketones to inhibit potato tuber sprouting” (Washington State University Research Foundation, priority 2000, dated 2005).
Marks after values point to notes of the source that are not given here.

Experiments:
Type in all cases: in vivo, Solanum tuberosum
[1] = tested on: Desiree potatoes (tubers); assay: Example 1: plant emergence and plant growth from treated tubers planted in greenhouse; details: 200 μL then 1000 μL in 9.2 L desiccator, 56 hour treatment, harvest 21 days after planting
Protocol: Methods: […] potatoes were produced in research plots at the Edmonton Research Station, University of Alberta in 1999. The tubers were harvested in September, washed, transported to Washington State University and placed in 4° C. storage in late October. Tubers, selected for uniform size, were taken from the storage area for the experiment in June. The 9-month-old tubers were fully emerged from dormancy after this prolonged storage interval; however, no sprout growth had occurred at the low storage temperature. The tubers were washed, air-dried, and evenly divided between two 9.2 liter (L) glass desiccators (8 tubers per desiccator). Trans-2-hexenal (200 μL) was pipetted into a 50 milliliter (mL) beaker that was placed inside one of the desiccators. The other desiccator served as control. Both desiccators were closed and the tubers were incubated in the two atmospheres for 32 hours. The desiccators were then opened, an additional 1000 μL of trans-2-hexenal was added to the beaker, and the desiccators were closed for an additional 24 hours. One tuber from each chamber was sampled for trans-2-hexenal content at the end of the 56 hour treatment interval. […] Time to plant emergence was recorded and plants were harvested 21 days after planting. Plants were separated into various components (e.g., stems, leaves) at harvest and the effects of trans-2-hexenal on plant morphology were assessed.

[2] = tested on: Ranger Russet seed-tubers; assay: Example 2: etiolated sprout development and tuber quality, Ranger Russet; details: 4.7 mmol/kg potato tubers, 25 days
Protocol: (§1) Methods: Ten-month-old Ranger Russet, Umatilla and Russet Burbank seed-tubers were taken from 4° C. storage and treated with trans-2-hexenal in 9.2-L glass desiccators as described in Example 1. The tubers were exposed to trans-2-hexenal for 0, 12 and 24 hours at 23° C. at a concentration of 4.7 mmol/kg potato tubers. Regardless of exposure time, all tubers remained enclosed in the chambers for the entire 24 hour period. This was accomplished by introducing the trans-2-hexenal at zero-time (into the 24 hour treatment desiccator) and after 12 hour incubation (into the 12 hour treatment desiccator) through a septum in the top of the closed desiccator. The treated tubers were planted into moistened peat/perlite/soil potting mix and placed in the dark at 24° C. to stimulate sprouting. The experiment was set up in a randomized complete block design (5 replicates) with treatments (3 cultivars×3 exposure times) arranged factorially. Effects of trans-2-hexenal exposure and cultivar on etiolated sprout development and tuber quality were assessed 25 days after removal from the 4° C. storage.

[3] = tested on: Russet Burbank seed-tubers; assay: Example 2: etiolated sprout development, tuber quality and soluble carbohydrates, Russet Burbank; details: 4.7 mmol/kg potato tubers, 25 days
Protocol: as §1

[4] = tested on: Russet Burbank seed-tubers; assay: Example 3: etiolated sprout development and tuber quality after 28 days; details: 0.96 mmol/kg, 12 hours at 23° C.; 28 days at 15° C.
Protocol: Methods: Eleven-month-old Russet Burbank seed-tubers were taken from a 4° C. storage area and treated with 250 μL of trans-2-hexenal in a 9.2 liter (L) glass desiccator (0.96 mmol/kg potato tubers) for 12 hours at 23° C. The trans-2-hexenal was pipetted onto Whatman #1 filter paper in a glass petri dish (5.5 cm diameter) inside the desiccator. Control tubers were enclosed in a desiccator without trans-2-hexenal. Following treatment, the tubers were enclosed in 1 L […] chambers (3 tubers per chamber) that were placed at 15° C. A continuous airflow (approximately 80 mL/min; 21% O2, 79% N2) was established around the tubers through inlet and outlet ports in the lid of each chamber. Respiration rates were determined at four hour intervals over a 28 day storage period by quantifying CO2 in the outflow from each chamber with a LI-COR model 6262 infra-red gas analyzer (LI-COR Inc., Lincoln Nebr.). The experiment was set up in a randomized complete block design (5 replicates) with two treatments (control and trans-2-hexenal-treated). The effect of trans-2-hexenal exposure on the development of etiolated sprouts was assessed 28 days after removal from the 4° C. storage.

In the case of CCC/C=C/C=O [trans-2-hexenal], the “sprouting, plant emergence and plant growth from potato tubers (in words)” value [1] is reported as “clearly inhibited sprouting”, the “Average Sprout Length” value ([2]; 12 h exposure) is reported as 0 cm/tuber and the “External Pit Rating (1-4 scale)” value ([2]; 12 h exposure) is reported as 3.1. For the same compound, the “Soft Rot Lesions” value ([2]; 12 h exposure) was 1.0 no/tuber, the “Sprout Fresh Weight” value ([2]; 12 h exposure) was 0 g/tuber and the “Average Sprout Length” value ([2]; 24 h exposure) was 0 cm/tuber. For the same compound, the “External Pit Rating (1-4 scale)” value ([2]; 24 h exposure) was 3.7, the “Soft Rot Lesions” value ([2]; 24 h exposure) was 1.2 no/tuber and the “Sprout Fresh Weight” value ([2]; 24 h exposure) was 0 g/tuber. The “Average Sprout Length” value ([3]; 12 h exposure) was 0 cm/tuber, the “External Pit Rating (1-4 scale)” value ([3]; 12 h exposure) was 1.8 and the “Soft Rot Lesions” value ([3]; 12 h exposure) was 0.6 no/tuber. For the same compound, the “Soluble Carbohydrates Fru” value ([3]; 12 h exposure) was 19.5 mg/g dry wt, the “Soluble Carbohydrates Glu” value ([3]; 12 h exposure) was 19.0 mg/g dry wt and the “Soluble Carbohydrates Glu + Fru” value ([3]; 12 h exposure) was 38.5 mg/g dry wt. For the same compound, the “Soluble Carbohydrates Suc” value ([3]; 12 h exposure) was 6.30 mg/g dry wt, the “Sprout Fresh Weight” value ([3]; 12 h exposure) was 0 g/tuber and the “Average Sprout Length” value ([3]; 24 h exposure) was 0 cm/tuber. The “External Pit Rating (1-4 scale)” value ([3]; 24 h exposure) was 2.2, the “Soft Rot Lesions” value ([3]; 24 h exposure) was 0.4 no/tuber and the “Soluble Carbohydrates Fru” value ([3]; 24 h exposure) was 17.8 mg/g dry wt. The “Soluble Carbohydrates Glu” value ([3]; 24 h exposure) was 16.5 mg/g dry wt, the “Soluble Carbohydrates Glu + Fru” value ([3]; 24 h exposure) was 34.3 mg/g dry wt and the “Soluble Carbohydrates Suc” value ([3]; 24 h exposure) was 6.28 mg/g dry wt. For the same compound, the “Sprout Fresh Weight” value ([3]; 24 h exposure) was 0 g/tuber, the Average Sprout Length [4] was 0** cm/tuber and the Sprout fresh wt [4] was 0** g/tuber. For the same compound, the “Tuber external pit rating” value [4] was 2.2** and the “Tuber fresh wt loss” value [4] was 11.8** g/tuber.
